Laboratory results reported in paper PMC9571433, “Design, Synthesis, Anti-Varicella-Zoster and Antimicrobial Activity of (Isoxazolidin-3-yl)Phosphonate Conjugates of N1-Functionalised Quinazoline-2,4-Diones” (Molecules, 2022).
Values after ≈ are worked out from the molar mass of the structure shown. Read-outs that look alike come from different tables or passages of the source.

How the values were obtained:
[1] = tested on: P. aeruginosa ATCC 27853; test: Broth microdilution MIC/MBC; conditions: Pseudomonas aeruginosa, ATCC27853, 24 h, read-out: MIC = MBC
[2] = tested on: B. cereus PCM 1948; test: Broth microdilution MIC/MBC; conditions: Bacillus cereus
[3] = tested on: A. brasiliensis ATCC 16404; test: Broth microdilution MIC/MBC (antifungal); conditions: Aspergillus brasiliensis
[4] = tested on: human embryonic lung (HEL) cells; conditions: minimum cytotoxic concentration causing microscopically detectable alteration of cell morphology
[5] = tested on: E. faecalis ATCC 29212; test: Broth microdilution MIC/MBC; conditions: Enterococcus faecalis, ATCC29212, 24 h
[6] = tested on: S. aureus ATCC 2593; test: Broth microdilution MIC/MBC; conditions: Staphylococcus aureus, ATCC2593, 24 h, read-out: MIC = MBC
[7] = tested on: TK– VZV 07-1 strain; test: microbe, parasite or virus in culture; assay type: cell-based, varicella-zoster virus; conditions: Human alphaherpesvirus 3, HEL, read-out: Antiviral Activity EC50 TK– VZV Strain (07-1)
[8] = tested on: E. coli ATCC 25922; test: Broth microdilution MIC/MBC; conditions: Escherichia coli
[9] = tested on: C. albicans ATCC 10241; test: Broth microdilution MIC/MBC (antifungal); conditions: Candida albicans
[10] = tested on: TK+ VZV OKA strain; test: microbe, parasite or virus in culture; assay type: cell-based, varicella-zoster virus; conditions: Human alphaherpesvirus 3, HEL, read-out: Antiviral Activity EC50 TK+ VZV Strain (OKA)
[11] = tested on: feline herpes viruses; parameters: method as in PMID 24906510, PMID 28763115, PMID 24219992; conditions: read-out: EC50 toward feline herpes viruses; cited from earlier work
[12] = PCM1948, 24 h, read-out: MIC = MBC
[13] = ATCC16404, 72 h, read-out: MIC = MBC
[14] = ATCC25922, 24 h, read-out: MIC = MBC

MIC ([2]; PCM1948) [µg/mL] | MIC ([3]; ATCC16404) [µg/mL] | MIC ([9]; ATCC10241) [µg/mL] | SMILES | MIC [1] [µg/mL] | MIC [2, 12] [µg/mL] | MIC [3, 13] [µg/mL] | Cytotoxicity Cell Morphology MCC [4] [μM] | MBC [5] [µg/mL] | MIC [5] [µg/mL] | MIC [6] [µg/mL] | EC50 [7] [µM] | MIC [8, 14] [µg/mL] | MIC ([9]; ATCC10241, read-out: MIC = MBC) [µg/mL] | EC50 [10] [µM] | MIC ([8]; ATCC25922) [µg/mL] | MBC ([3]; ATCC16404) [µg/mL] | MBC ([9]; ATCC10241) [µg/mL] | EC50 [11] [µM]
 |  |  | CCOP(=O)(OCC)[C@H]1C[C@H](Cn2c(=O)c3ccccc3n(Cc3ccccc3)c2=O)ON1Cc1ccccc1 (relative stereo) [Diethyl trans-(2-benzyl-5-((1-benzyl-2,4-dioxo-1,4-dihydroquinazolin-3(2H)-yl)methyl)isoxazolidin-3-yl)phosphonate] | 2500 (≈ 4.44 mM) | 1250 (≈ 2.22 mM) | 5000 (≈ 8.87 mM) | 100 | > 5000 | > 5000 | 5000 (≈ 8.87 mM) | 34.2 | 2500 (≈ 4.44 mM) | 5000 (≈ 8.87 mM) | 14.5 |  |  |  | 
 |  |  | CCOP(=O)(OCC)[C@H]1C[C@H](Cn2c(=O)c3ccccc3n(Cc3ccccc3F)c2=O)ON1C (relative stereo) [Diethyl trans-(5-((1-(2-fluorobenzyl)-2,4-dioxo-1,4-dihydroquinazolin-3(2H)-yl)methyl)-2-methylisoxazolidin-3-yl)phosphonate] | 2500 (≈ 4.95 mM) | 1250 (≈ 2.47 mM) | 5000 (≈ 9.89 mM) | >100 | > 5000 | > 5000 | 5000 (≈ 9.89 mM) | 58.5 | 2500 (≈ 4.95 mM) | 2500 (≈ 4.95 mM) | 31.7 |  |  |  | 
 |  |  | CCOP(=O)(OCC)[C@H]1C[C@H](Cn2c(=O)c3ccccc3n(Cc3ccc(F)cc3)c2=O)ON1C (relative stereo) [Diethyl trans-(5-((1-(4-fluorobenzyl)-2,4-dioxo-1,4-dihydroquinazolin-3(2H)-yl)methyl)-2-methylisoxazolidin-3-yl)phosphonate] | 2500 (≈ 4.95 mM) | 1250 (≈ 2.47 mM) | 5000 (≈ 9.89 mM) | >100 | > 5000 | > 5000 | 5000 (≈ 9.89 mM) | 38.1 | 2500 (≈ 4.95 mM) | 2500 (≈ 4.95 mM) | 58.5 |  |  |  | 
 |  |  | C=CCn1c(=O)c2ccccc2n(Cc2ccccc2)c1=O [24a, 3-Allyl-1-benzylquinazoline-2,4-dione] | 2500 (≈ 8.55 mM) | 5000 (≈ 17.1 mM) | 5000 (≈ 17.1 mM) | >100 | > 5000 | > 5000 | 5000 (≈ 17.1 mM) | 100 | 2500 (≈ 8.55 mM) | 5000 (≈ 17.1 mM) | 100 |  |  |  | 
 |  |  | C=CCn1c(=O)c2ccccc2n(Cc2ccccc2F)c1=O [24b, 3-Allyl-1-(2-fluorobenzyl)quinazoline-2,4-dione] | 2500 (≈ 8.06 mM) | 2500 (≈ 8.06 mM) | 5000 (≈ 16.1 mM) | >100 | > 5000 | > 5000 | 5000 (≈ 16.1 mM) | 64.5 | 2500 (≈ 8.06 mM) | 5000 (≈ 16.1 mM) | > 100 |  |  |  | 
 |  |  | C=CCn1c(=O)c2ccccc2n(Cc2cccc(F)c2)c1=O [24c, 3-Allyl-1-(3-fluorobenzyl)quinazoline-2,4-dione] | 2500 (≈ 8.06 mM) | 5000 (≈ 16.1 mM) | 5000 (≈ 16.1 mM) | >100 | > 5000 | > 5000 | 5000 (≈ 16.1 mM) | > 100 | 1250 (≈ 4.03 mM) | 2500 (≈ 8.06 mM) | > 100 | 1250 (≈ 4.03 mM) |  |  | 
 |  |  | C=CCn1c(=O)c2ccccc2n(Cc2ccc(F)cc2)c1=O [24d, 3-Allyl-1-(4-fluorobenzyl)quinazoline-2,4-dione] | 2500 (≈ 8.06 mM) | 5000 (≈ 16.1 mM) | 5000 (≈ 16.1 mM) | 100 | > 5000 | > 5000 | 5000 (≈ 16.1 mM) | > 20 | 2500 (≈ 8.06 mM) | 2500 (≈ 8.06 mM) | 54.7 |  |  |  | 
20 (≈ 0.0342 mM) |  |  | NCC[C@H](O)C(=O)N[C@@H]1C[C@H](N)[C@@H](O[C@H]2O[C@H](CN)[C@@H](O)[C@H](O)[C@H]2O)[C@H](O)[C@H]1O[C@H]1O[C@H](CO)[C@@H](O)[C@H](N)[C@H]1O [Amikacin, reference compound] | 20 (≈ 0.0342 mM) | 20 (≈ 0.0342 mM) |  |  |  | 0.625 (≈ 0.00107 mM) | 1 (≈ 0.00171 mM) |  | 0.625 (≈ 0.00107 mM) |  |  |  |  |  | 
 |  |  | O=c1[nH]c(=O)n([C@H]2C[C@H](O)[C@@H](CO)O2)cc1/C=C/Br [Brivudin, reference compound] |  |  |  | >300 |  |  |  | 12 |  |  | 0.026 |  |  |  | 
 |  |  | CCOP(=O)(OCC)C1CC(Cn2c(=O)c3ccccc3n(Cc3ccccc3F)c2=O)ON1Cc1ccccc1 (stereo not drawn) [Diethyl trans-(2-benzyl-5-((1-(2-fluorobenzyl)-2,4-dioxo-1,2-dihydroquinazolin-3(2H)-yl)methyl)isoxazolidin-3-yl)phosphonate] | 2500 (≈ 4.3 mM) | 1250 (≈ 2.15 mM) | 5000 (≈ 8.6 mM) | 100 | > 5000 | > 5000 | 5000 (≈ 8.6 mM) | 27.6 | 2500 (≈ 4.3 mM) | 2500 (≈ 4.3 mM) | 12.6 |  |  |  | 
 |  |  | CCOP(=O)(OCC)C1CC(Cn2c(=O)c3ccccc3n(Cc3cccc(F)c3)c2=O)ON1Cc1ccccc1 (stereo not drawn) [Diethyl trans-(2-benzyl-5-((1-(3-fluorobenzyl)-2,4-dioxo-1,2-dihydroquinazolin-3(2H)-yl)methyl)isoxazolidin-3-yl)phosphonate] | 2500 (≈ 4.3 mM) | 2500 (≈ 4.3 mM) | 5000 (≈ 8.6 mM) | 20 | > 5000 | > 5000 | 5000 (≈ 8.6 mM) | 14.5 | 1250 (≈ 2.15 mM) | 2500 (≈ 4.3 mM) | 20 | 1250 (≈ 2.15 mM) |  |  | 
 |  |  | CCOP(=O)(OCC)C1CC(Cn2c(=O)c3ccccc3n(Cc3ccc(F)cc3)c2=O)ON1Cc1ccccc1 (stereo not drawn) [Diethyl trans-(2-benzyl-5-((1-(4-fluorobenzyl)-2,4-dioxo-1,2-dihydroquinazolin-3(2H)-yl)methyl)isoxazolidin-3-yl)phosphonate] | 2500 (≈ 4.3 mM) | 1250 (≈ 2.15 mM) | 5000 (≈ 8.6 mM) | 100 | > 5000 | > 5000 | 5000 (≈ 8.6 mM) | 20 | 1250 (≈ 2.15 mM) | 2500 (≈ 4.3 mM) | 20 | 1250 (≈ 2.15 mM) |  |  | 
 | 5 (≈ 0.0163 mM) | 5 (≈ 0.0163 mM) | OC(Cn1cncn1)(Cn1cncn1)c1ccc(F)cc1F [Fluconazole, reference compound] |  |  |  |  |  |  |  |  |  |  |  |  | > 5 | > 5 | 
 |  |  | CCOP(=O)(OCC)C1CC(Cn2c(=O)c3ccccc3n(Cc3ccccc3)c2=O)ON1C (stereo not drawn) [cis-20a/trans-20a (10:90), Diethyl trans-5-((1-benzyl-2,4-dioxo-1,4-dihydroquinazolin-3(2H)-yl)methyl)-2-methylisoxazolidin-3-yl)phosphonate] | 2500 (≈ 5.13 mM) | 1250 (≈ 2.56 mM) | 5000 (≈ 10.3 mM) | >100 | > 5000 | > 5000 | 2500 (≈ 5.13 mM) | 100 | 1250 (≈ 2.56 mM) | 2500 (≈ 5.13 mM) | 31.7 | 1250 (≈ 2.56 mM) |  |  | 
 |  |  | CCOP(=O)(CCCn1cc(Cn2c(=O)n(C(=O)c3ccccc3)c(=O)c3ccccc32)nn1)OCC [compound 7] |  |  |  |  |  |  |  |  |  |  |  |  |  |  | 4
 |  |  | O=C(c1ccccc1)n1c(=O)c2ccccc2n(Cc2cn(C[C@H](OCc3ccccc3)[C@H](O)P(=O)(OCc3ccccc3)OCc3ccccc3)nn2)c1=O [compound 8] |  |  |  |  |  |  |  |  |  |  |  |  |  |  | 24
